Measurements reported in patent US9434728B1, “Nitrogen containing compounds and their use” (WOCKHARDT LIMITED, priority 2013, dated 2016).
Converted amounts (≈) assume the structure as drawn.

How the values were obtained:
Type in all cases: cell-based
E. coli (7MP) = assay: Antibacterial activity, agar dilution MIC (CLSI); settings: Escherichia coli, ESBL SHV, CMY
Protocol: (§1) The biological activity of representative compounds according to the invention against various bacterial strains was investigated. In a typical study, overnight grown bacterial cultures were diluted appropriately and inoculated on the agar media containing doubling dilutions of the test compounds. Observations for growth or no growth was performed after 16-20 hours of incubation at 35±2° C. in the ambient air. The overall procedure was performed as per Clinical and Laboratory Standards Institute (CLSI) recommendations (Clinical and Laboratory Standards Institute (CLSI), Performance Standards for Antimicrobial Susceptibility Testing, 20th Informational Supplement, M 100-S20, Volume 30, No. 1, 2010). […] The Compound (XI), which is the free zwitterionic form of Compound (X), was also studied for the antibacterial activity profile.

E. coli (NCTC 13352) = assay: Antibacterial activity, agar dilution MIC (CLSI); settings: Escherichia coli, NCTC13352, ESBL TEM 10
Protocol: as §1

E. coli (NCTC 13353) = assay: Antibacterial activity, agar dilution MIC (CLSI); settings: Escherichia coli, NCTC13353, ESBL CTXM-15
Protocol: as §1

K. pneumoniae (H521) = assay: Antibacterial activity, agar dilution MIC (CLSI); settings: Klebsiella pneumoniae, ESBL KPC
Protocol: as §1

K. pneumoniae (S48) = assay: Antibacterial activity, agar dilution MIC (CLSI); settings: Klebsiella pneumoniae, ESBL NDM, SHV
Protocol: as §1

P. aeruginosa (MBL18) = assay: Antibacterial activity, agar dilution MIC (CLSI); settings: Pseudomonas aeruginosa, ESBL VIM
Protocol: as §1

E. coli H483 = assay: Antibacterial activity in combination with Ceftazidime, agar dilution MIC; settings: Escherichia coli; agent alone; E. coli H483, ESBL CMY-2
Protocol: as §1
(§2) The antibacterial activity of the Compound (XI) was also studied in combination with other beta-lactam antibacterial agents. […] The antibacterial activity of the combination of Compound (XI) (4 μg/ml) and Ceftazidime was compared with (i) combination of Cetftazidime and Avibactam (4 μg/ml); and (ii) Imipenem alone.

[1] = tested on: K. pneumoniae ATCC 700603; assay: as above; settings: Klebsiella pneumoniae, ATCC700603; agent alone; K. pneumoniae ATCC 700603, ESBL SHV-18
Protocol: as §1, §2

K. pneumoniae J101 = assay: as above; settings: Klebsiella pneumoniae; agent alone; K. pneumoniae J101, ESBL TEM-1, SHV-12, OMP
Protocol: as §1, §2

K. pneumoniae J102 = assay: as above; settings: Klebsiella pneumoniae; agent alone; K. pneumoniae J102, ESBL TEM-1, SHV-5, OMP
Protocol: as §1, §2

[2] = tested on: resistant ESBL strains of K. pneumoniae, E. coli and P. aeruginosa; assay: Antibacterial activity profile
Protocol: as §1

| MIC (E. coli (7MP)) [µg/mL] | MIC (E. coli (NCTC 13352)) [µg/mL] | MIC (E. coli (NCTC 13353)) [µg/mL] | MIC (K. pneumoniae (H521)) [µg/mL] | MIC (K. pneumoniae (S48)) [µg/mL] | MIC (P. aeruginosa (MBL18)) [µg/mL] | MIC (E. coli H483) [µg/mL] | MIC [1] [µg/mL] | MIC (K. pneumoniae J101) [µg/mL] | MIC (K. pneumoniae J102) [µg/mL] | SMILES | antibacterial activity (in words) [2] |
| --- | --- | --- | --- | --- | --- | --- | --- | --- | --- | --- | --- |
| 16 (≈ 33.3 µM) | 2 (≈ 4.16 µM) | > 32 | > 32 | > 32 | > 32 | – | – | – | – | CO/N=C(\C(=O)N[C@@H]1C(=O)N2C(C(=O)[O-])=C(C[N+]3(C)CCCC3)CS[C@H]12)c1csc(N)n1 [Cefepime] | – |
| 1 (≈ 3.34 µM) | 0.25 (≈ 0.835 µM) | 0.25 (≈ 0.835 µM) | 16 (≈ 53.4 µM) | 16 (≈ 53.4 µM) | 16 (≈ 53.4 µM) | 0.25 | 0.12 | 2 | 8 | C[C@@H](O)[C@H]1C(=O)N2C(C(=O)O)=C(SCCN=CN)C[C@H]12 [Imipenem] | – |
| > 32 | > 32 | > 32 | > 32 | > 32 | > 32 | > 32 | 16 | > 32 | > 32 | CC(C)(O/N=C(\C(=O)N[C@@H]1C(=O)N2C(C(=O)[O-])=C(C[n+]3ccccc3)CS[C@H]12)c1csc(N)n1)C(=O)O [Ceftazidime] | – |
| 4 (≈ 15.9 µM) | 2 (≈ 7.96 µM) | 1 (≈ 3.98 µM) | 1 (≈ 3.98 µM) | 1 (≈ 3.98 µM) | 8 (≈ 31.8 µM) | – | – | – | – | NC[C@@H]1CC[C@@H]2CN1C(=O)N2OS(=O)(=O)O [Compound (XI), (2S, 5R)-6-sulfooxy-2-(aminomethyl)-7-oxo-1,6-diaza-bicyclo[3.2.1]octane] | good antibacterial activity |
